Test results: patent US10369123B2, “Perk activator for the treatment of neurodegenerative diseases” (DEUTSCHES ZENTRUM FÜR NEURODEGENERATIVE ERKRANKUNGEN E.V. …, priority 2014, dated 2019)
Read-outs that look alike come from different tables or passages of the source.

Key:
PERK = molecular target: T1, PERK (Homo sapiens, UniProt Q9NZJ5); conditions: Stockwell et al. 2012; cited from earlier work
T1 sequence (Q9NZJ5 30-1116): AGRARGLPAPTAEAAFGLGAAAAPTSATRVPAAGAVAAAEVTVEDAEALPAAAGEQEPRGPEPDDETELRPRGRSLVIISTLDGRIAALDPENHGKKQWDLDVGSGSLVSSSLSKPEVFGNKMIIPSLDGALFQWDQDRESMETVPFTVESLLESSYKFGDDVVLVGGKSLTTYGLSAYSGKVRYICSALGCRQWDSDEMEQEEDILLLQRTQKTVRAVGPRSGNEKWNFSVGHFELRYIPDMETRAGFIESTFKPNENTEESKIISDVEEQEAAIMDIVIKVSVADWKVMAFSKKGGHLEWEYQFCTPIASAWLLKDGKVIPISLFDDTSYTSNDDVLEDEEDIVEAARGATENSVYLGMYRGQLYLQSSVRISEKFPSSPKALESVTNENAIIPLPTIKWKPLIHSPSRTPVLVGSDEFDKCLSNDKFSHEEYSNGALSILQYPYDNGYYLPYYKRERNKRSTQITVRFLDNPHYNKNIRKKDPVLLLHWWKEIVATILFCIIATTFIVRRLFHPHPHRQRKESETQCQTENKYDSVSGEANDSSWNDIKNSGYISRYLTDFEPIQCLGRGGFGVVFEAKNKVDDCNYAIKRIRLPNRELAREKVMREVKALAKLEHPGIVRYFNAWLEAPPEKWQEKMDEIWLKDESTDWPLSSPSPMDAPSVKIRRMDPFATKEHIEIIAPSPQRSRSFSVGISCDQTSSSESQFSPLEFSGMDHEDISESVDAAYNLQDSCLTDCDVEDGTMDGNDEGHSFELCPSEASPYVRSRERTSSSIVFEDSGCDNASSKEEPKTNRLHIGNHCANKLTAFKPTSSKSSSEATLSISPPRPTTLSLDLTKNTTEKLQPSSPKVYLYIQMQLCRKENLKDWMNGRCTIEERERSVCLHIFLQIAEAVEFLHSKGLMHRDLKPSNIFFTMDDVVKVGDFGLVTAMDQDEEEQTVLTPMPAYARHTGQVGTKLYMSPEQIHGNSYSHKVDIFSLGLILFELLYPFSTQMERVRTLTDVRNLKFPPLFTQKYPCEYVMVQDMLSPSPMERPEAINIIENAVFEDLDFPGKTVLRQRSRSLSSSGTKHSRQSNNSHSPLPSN

[1] = system: LUHMES neurons overexpressing 4R-tau; assay: MTT assay, LUHMES neurons overexpressing 4R-tau; format: cell-based, human; conditions: lentiviral 4R-tau overexpression 10 days, co-administration of PERK modulator
Description: Nunc™ Nunclon™ Delta 6-well (for protein and mRNA) or 48-well (for cell assays) plates (Thermo Fisher Scientific, Waltham, Mass., USA) were coated with 100 μg/ml poly-L-lysine (Sigma-Aldrich, St. Louis, Mo., USA) and 5 μg/ml fibronectin (Sigma-Aldrich). LUHMES (Lund Human Mesencephalic) cells, derived from human embryonic ventral mesencephalic cells by conditional immortalization (Tet-off v-myc over-expression) were seeded out in a concentration of 130,000 cells/cm^2 to achieve a confluence of 50%. […]
Concentrated lentiviral particles were titrated by transducing LUHMES cells with different dilutions at 6 hours after initiating differentiation. The lowest dilution at which at least 90% of cells expressed the transgene (as determined by immunohistochemistry of the cells fixed on day 2 post differentiation) was chosen for subsequent experiments. […]
Thiazolyl Blue Tetrazolium […] (Sigma Aldrich) was dissolved in sterile PBS to a concentration of 5 mg/ml. […] 100 μl from each well were transferred to a new 96-well plate and the absorbance was read with the FLUOstar Omega (BMG Labtech) platereader at a wavelength of 590 nm (reference wave length 630 nm). The data was analyzed using the MARS Data Analysis Software (BMG Labtech) and Prism 6.

[2] = system: wild type and P301S tau mice; format: in vivo, mouse
Description: All animal work was conducted either on CR57BL/6 mice, obtained from Charles River Laboratories, Wilmington, Mass., USA, or on homozygous transgenic mice overexpressing human tau with the P301S mutation on a C57BL/6 background, originally developed by Michel Goedert (Xu et al. 2014), obtained by own breeding. Animals were kept at 23±1° C. under standard 12 h light-dark cycle with free access to food and water. They were handled according to the EU Council Directive 2010/63/EU, the Guide for the Care and Use of Laboratory Animals (National Research Council 2011) and the guidelines of the local institutional committee. The experiments were authorized by the local authority “Regierung von Oberbayern” under application number 55.2-1-54-2532-165-13. […]
For the efficacy trial in the early disease stage (Xu et al. 2014), P301S mice (n=8 per group) and wild type littermates (n=9 per group) received once daily i.p. injections of 2 mg/kg CCT020312 or equivalent volumes of saline from 9 to 14 weeks of age; they were analyzed with the Morris Water Maze in the 15th week of age.
For the efficacy trial in the late disease stage (Xu et al. 2014), P301S mice and wild type littermates received once daily i.p. injections of 2 mg/kg CCT020312 or saline from 17 to 22 weeks of age (n=12 for CCT020312 treated P301S mice, n=9 for other groups); they were analyzed with the Rotarod test in the 23rd week of age.

CCN(CC)CCC(=O)N1N=C(c2c(-c3ccccc3)c3cc(Br)ccc3[nH]c2=O)CC1c1ccc(Br)cc1 (centres unmarked) [CCT020312, 6-bromo-3-[5-(4-bromo-phenyl)-1-(3-diethylamino-propionyl)-4,5-dihydro-1H-pyrazol-3-yl]-4-phenyl-1H-quinolin-2-one]
EIF2A phosphorylation (PERK): increase | other arms of the UPR (PERK): remained unaffected | 4R-specific toxicity in MTT assay [1]: reduced significantly | death or obvious signs of sickness during treatment ([2]; aged wild type and P301S tau mice, 2 mg/kg once daily for 6 weeks, until 23 weeks of age): no CCT020312-treated wild type (n=9) and P301S tau mouse (n=12) died during the treatment period or showed any obvious signs of sickness | death or obvious signs of sickness during treatment ([2]; young wild type and P301S tau mice, 2 mg/kg for 6 weeks): No CCT020312-treated mouse of the wild type group (N=8) and of the P301S tau group (N=8) died during the treatment period or showed any obvious signs of sickness
